Values joined by “and” are separate entries in the source; they are usually repeats but may differ in a detail not shown here. Equal entries are not always repeated.
System: PANC-1 complex spheroid growth, percent test/control
Assay: Anticancer human tumor PANC-1 cell line growth inhibition [Asc];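 note: spheroids exposed to agents for 7 days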;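 for viability, T/C: percent viability relative to DMSO vehicle wells taken as 100%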
Settings: for viability, T/C: stronger effect = lower value
Summary of the method: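 Complex solid-tumor spheroids incorporating human endothelial and mesenchymal stem cells received single agents or combinations over half-log dilution ranges anchored to clinical Cmax.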

## Cn1ncnc1[C@H]1c2n[nH]c(=O)c3cc(F)cc(c23)N[C@@H]1c1ccc(F)cc1 + CCN1C(C(=O)NC23CCC(C(=O)O)(CC2)CC3)C(c2cccc(Cl)c2F)C2(C(=O)Nc3cc(Cl)ccc32)C12CCCCC2
Curve of first compound, second compound 0.00949 µM
  IC50: > 100 nM
Curve of first compound, second compound 0.03 µM
  IC50: > 100 nM
Curve of first compound, second compound 0.0949 µM
  IC50: > 100 nM
Curve of first compound, second compound 0.3 µM
  IC50: > 100 nM
Curve of first compound, second compound 0.949 µM
  IC50: > 100 nM
Curve of first compound, second compound 3 µM
  IC50: > 100 nM
Second compound 0.00949 µM, first compound 0.000316 µM
  viability, T/C: 101%
Second compound 0.00949 µM, first compound 0.001 µM
  viability, T/C: 89.6%
Second compound 0.00949 µM, first compound 0.00316 µM
  viability, T/C: 97.4%
Second compound 0.00949 µM, first compound 0.01 µM
  viability, T/C: 96.7%
Second compound 0.00949 µM, first compound 0.0316 µM
  viability, T/C: 111%
Second compound 0.00949 µM, first compound 0.1 µM
  viability, T/C: 113%
Second compound 0.03 µM, first compound 0.000316 µM
  viability, T/C: 107%
Second compound 0.03 µM, first compound 0.001 µM
  viability, T/C: 89.5%
Second compound 0.03 µM, first compound 0.00316 µM
  viability, T/C: 98.4%
Second compound 0.03 µM, first compound 0.01 µM
  viability, T/C: 98.9%
Second compound 0.03 µM, first compound 0.0316 µM
  viability, T/C: 109%
Second compound 0.03 µM, first compound 0.1 µM
  viability, T/C: 101%
Second compound 0.0949 µM, first compound 0.000316 µM
  viability, T/C: 93.4%
Second compound 0.0949 µM, first compound 0.001 µM
  viability, T/C: 98.1%
Second compound 0.0949 µM, first compound 0.00316 µM
  viability, T/C: 103%
Second compound 0.0949 µM, first compound 0.01 µM
  viability, T/C: 94.2%
Second compound 0.0949 µM, first compound 0.0316 µM
  viability, T/C: 108%
Second compound 0.0949 µM, first compound 0.1 µM
  viability, T/C: 102%
Second compound 0.3 µM, first compound 0.000316 µM
  viability, T/C: 98.8%
Second compound 0.3 µM, first compound 0.001 µM
  viability, T/C: 96.2%
Second compound 0.3 µM, first compound 0.00316 µM
  viability, T/C: 109%
Second compound 0.3 µM, first compound 0.01 µM
  viability, T/C: 101%
Second compound 0.3 µM, first compound 0.0316 µM
  viability, T/C: 110%
Second compound 0.3 µM, first compound 0.1 µM
  viability, T/C: 106%
Second compound 0.949 µM, first compound 0.000316 µM
  viability, T/C: 111%
Second compound 0.949 µM, first compound 0.001 µM
  viability, T/C: 117%
Second compound 0.949 µM, first compound 0.00316 µM
  viability, T/C: 106%
Second compound 0.949 µM, first compound 0.01 µM
  viability, T/C: 107%
Second compound 0.949 µM, first compound 0.0316 µM
  viability, T/C: 105%
Second compound 0.949 µM, first compound 0.1 µM
  viability, T/C: 114%
Second compound 3 µM, first compound 0.000316 µM
  viability, T/C: 109%
Second compound 3 µM, first compound 0.001 µM
  viability, T/C: 123%
Second compound 3 µM, first compound 0.00316 µM
  viability, T/C: 124%
Second compound 3 µM, first compound 0.01 µM
  viability, T/C: 116%
Second compound 3 µM, first compound 0.0316 µM
  viability, T/C: 125%
Second compound 3 µM, first compound 0.1 µM
  viability, T/C: 106%

## CCN1CCN(Cc2ccc(Nc3ncc(F)c(-c4cc(F)c5nc(C)n(C(C)C)c5c4)n3)nc2)CC1 + Cc1c(S(C)(=O)=O)c(-c2cc(F)cc(N3CCN(c4ccc(NS(=O)(=O)c5ccc(NC(CCN6CCC(C(=O)OCCCP(=O)(O)O)CC6)CSc6ccccc6)c(S(=O)(=O)C(F)(F)F)c5)cc4)CC3)c2)c(-c2ccc(Cl)cc2)n1C(C)C
Curve of first compound, second compound 0.0316 µM
  IC50: > 1000 nM
Curve of first compound, second compound 0.1 µM
  IC50: > 1000 nM
Curve of first compound, second compound 0.316 µM
  IC50: > 1000 nM
Curve of first compound, second compound 1 µM
  IC50: > 1000 nM
Curve of first compound, second compound 3.16 µM
  IC50: > 1000 nM
Curve of first compound, second compound 10 µM
  IC50: > 1000 nM
Second compound 0.0316 µM, first compound 0.00316 µM
  viability, T/C: 93.5%
Second compound 0.0316 µM, first compound 0.01 µM
  viability, T/C: 108%
Second compound 0.0316 µM, first compound 0.0316 µM
  viability, T/C: 102%
Second compound 0.0316 µM, first compound 0.1 µM
  viability, T/C: 121%
Second compound 0.0316 µM, first compound 0.316 µM
  viability, T/C: 124%
Second compound 0.0316 µM, first compound 1 µM
  viability, T/C: 129%
Second compound 0.1 µM, first compound 0.00316 µM
  viability, T/C: 96%
Second compound 0.1 µM, first compound 0.01 µM
  viability, T/C: 100%
Second compound 0.1 µM, first compound 0.0316 µM
  viability, T/C: 99.5%
Second compound 0.1 µM, first compound 0.1 µM
  viability, T/C: 115%
Second compound 0.1 µM, first compound 0.316 µM
  viability, T/C: 121%
Second compound 0.1 µM, first compound 1 µM
  viability, T/C: 137%
Second compound 0.316 µM, first compound 0.00316 µM
  viability, T/C: 105%
Second compound 0.316 µM, first compound 0.01 µM
  viability, T/C: 116%
Second compound 0.316 µM, first compound 0.0316 µM
  viability, T/C: 108%
Second compound 0.316 µM, first compound 0.1 µM
  viability, T/C: 103%
Second compound 0.316 µM, first compound 0.316 µM
  viability, T/C: 123%
Second compound 0.316 µM, first compound 1 µM
  viability, T/C: 127%
Second compound 1 µM, first compound 0.00316 µM
  viability, T/C: 104%
Second compound 1 µM, first compound 0.01 µM
  viability, T/C: 101%
Second compound 1 µM, first compound 0.0316 µM
  viability, T/C: 115%
Second compound 1 µM, first compound 0.1 µM
  viability, T/C: 126%
Second compound 1 µM, first compound 0.316 µM
  viability, T/C: 115%
Second compound 1 µM, first compound 1 µM
  viability, T/C: 125%
Second compound 3.16 µM, first compound 0.00316 µM
  viability, T/C: 110%
Second compound 3.16 µM, first compound 0.01 µM
  viability, T/C: 104%
Second compound 3.16 µM, first compound 0.0316 µM
  viability, T/C: 102%
Second compound 3.16 µM, first compound 0.1 µM
  viability, T/C: 120%
Second compound 3.16 µM, first compound 0.316 µM
  viability, T/C: 123%
Second compound 3.16 µM, first compound 1 µM
  viability, T/C: 125%
Second compound 10 µM, first compound 0.00316 µM
  viability, T/C: 171%
Second compound 10 µM, first compound 0.01 µM
  viability, T/C: 188%
Second compound 10 µM, first compound 0.0316 µM
  viability, T/C: 174%
Second compound 10 µM, first compound 0.1 µM
  viability, T/C: 175%
Second compound 10 µM, first compound 0.316 µM
  viability, T/C: 168%
Second compound 10 µM, first compound 1 µM
  viability, T/C: 140%

## C=CC(=O)N1CCN(c2nc(=O)n(-c3c(C)ccnc3C(C)C)c3nc(-c4c(O)cccc4F)c(F)cc23)C(C)C1 (stereo unspecified)
Compound 0.0316 µM
  viability, T/C: 105% and 97.2% and 101%
Compound 0.1 µM
  viability, T/C: 96% and 89.2% and 90%
Compound 0.316 µM
  viability, T/C: 104% and 106% and 98%
Compound 1 µM
  viability, T/C: 101% and 89.2% and 96.2%
Compound 3.16 µM
  viability, T/C: 85.8% and 99.7% and 91.8%
Compound 10 µM
  viability, T/C: 93.4% and 87.1% and 88%
Curve of compound
  IC50: > 10000 nM

— PubChem BioAssay AID1963435 (Molecular Pharmacology Branch, DTP, NCI, 2024)
